# Experimental data reported in patent US12145943B2, “Solid forms of 3-(5-Fluorobenzofuran-3-yl)-4-(5-methyl-5H-[1,3]dioxolo[4,5-f]indol-7-yl)pyrrole-2,5-dione” (Actuate Therapeutics Inc., priority 2017, dated 2024).
# Columns and labels:
# Format in all cases: physicochemical
# [1] = Aqueous solubility study (water or buffers, HPLC of filtrate, XRPD of remaining solids); conditions: for solubility: shaken 200 rpm 24 h
# Experimental: The solubility of 9-ING-41 polymorphic forms in water or buffers were determined using HPLC under the following conditions: • Instrument: Agilent 1260 Infinity Series • Diluent: Acetonitrile • Flow rate: 1.5 mL/min • Mobile phase: A: 0.05% TFA in water • B: 0.05% TFA in Acetonitrile • Injection volume: 1 μL • Column: XDB-C18, 4.6*50 mm, 1.8 μm • Column Temperature: 40° C. • Detection: 220 nm • Run Time: 8 minutes (2 minutes delay for next injection) • Gradient (T/B %): 0.0/70, 6.0/100, 8.0/100 10-30 mg of 9-ING-41 Form I was added to 2 mL of water or a buffer solution buffered at pH=1.2, 4.5, or 6.8. The samples were shaken at 200 rpm in a shaker for 24 h. The sample vials were visually examined to ensure saturation. 1 mL of each suspension was filtered at 24 hours through a 0.22 µm nylon syringe filter into another clean clear glass vial. The filtrate was analyzed using HPLC (accurately dilute if necessary) and the remaining solids were analyzed using XRPD.
# [2] = Solubility in 30% acetonitrile in water (HPLC of filtrate, XRPD of remaining solids)
# Experimental: The solubility of 9-ING-41 polymorphic forms in 30% Acetonitrile in water was determined using HPLC under the following conditions: • Instrument: Agilent 1260 Infinity Series • Diluent: 30% acetonitrile aqueous solution • Flow rate: 1.5 mL/min • Mobile phase: A: 0.05% TFA in water • B: 0.05% TFA in acetonitrile • Injection volume: […] • Column: XDB-C18, 4.6*50 mm, 1.8 μm • Column Temperature: 40° C. • Detection: 220 nm • Run Time: 8 minutes (2 minutes delay for next injection) • Gradient (T/B %): 0.0/70, 6.0/100, 8.0/100
# About 5 mg of 9-ING-41 Form I was added into 2 mL of 30% acetonitrile/70% water (vol/vol). The sample was shaken at 200 rpm in a shaker for 24 h. The vial was visually examined to ensure saturation. 1 mL of the suspension was filtered through a 0.22 µm nylon syringe filter into another clean clear glass vial at 2 hours and at 24 hours. The filtrates were analyzed using HPLC (accurately dilute if necessary) and the remaining solids were analyzed using XRPD.
# [3] = Dynamic vapor sorption (DVS) analysis; conditions: 80% relative humidity, 25.0±1.0° C.
# Experimental: DVS analyses were conducted on an IGAsorp (HidenIsochema Ltd.). For an isotherm test, the chamber temperature was maintained by a water bath at constant 25.0±1.0° C.
# [4] = Mechanical and pressure effects on crystalline form (XRPD)
# Experimental: XRPD analyses were performed using an X-ray diffractometer (Bruker D8 advance) equipped with LynxEye detector. The instrument parameters were listed below. • Scan: 3° (2θ) to 40° (2θ) • Increment: 0.02° (2θ) • Scan speed: 0.3 sec/step • Voltage: 40 KV • Current: 40 mA • Rotation: On • Sample hold: Zero-background sample holder TGA Analysis 9.90 mg of 9-ING-41 Form I was weighed into mortar and ground for 5 min. […] 9-ING-41 Form I was pressed into two tablets. The weight of tablets was 38.9 mg and 36.2 mg, respectively.
"crystalline form of remaining solids (XRPD) ([1]; after 24 h in water or pH 1.2, 4.5, 6.8 buffer)",solubility ([1]; pH 1.2 buffer),solubility ([1]; pH 4.5 buffer),solubility ([1]; pH 6.8 buffer),"9-ING-41 in the filtrates by HPLC ([1]; water or pH 1.2, 4.5, 6.8 buffer, filtrate at 24 hours)",solubility ([1]; water),crystalline form of remaining solids (XRPD) ([2]; after shaking in 30% acetonitrile/70% water),"solubility at 24 h ([2]; aqueous with cosolvent or surfactant or cyclodextrin, thermodynamic from solid, 30% acetonitrile/70% water (vol/vol), after 24 hours, read-out: 9-ING-41 in filtrate (solubility) by HPLC)","solubility at 2 h ([2]; aqueous with cosolvent or surfactant or cyclodextrin, thermodynamic from solid, 30% acetonitrile/70% water (vol/vol), after two hours, read-out: 9-ING-41 in filtrate (solubility) by HPLC)",weight gain (DVS) [3],crystalline form after grinding (XRPD) ([4]; ground in mortar for 5 min),"crystalline form after pressing into tablets (XRPD) ([4]; pressed into tablets, then ground into powder)","solubility at 30 min ([2]; aqueous with cosolvent or surfactant or cyclodextrin, thermodynamic from solid, 30% acetonitrile/70% water (vol/vol), after 30 minutes)",SMILES
no change in crystalline form,poor,poor,poor,could not be detected,poor,no change in crystalline form,48 µg/mL,46 µg/mL,about 0.23 % by weight,had not changed,had not changed,,"Cn1cc(C2=C(c3coc4ccc(F)cc34)C(=O)NC2=O)c2cc3c(cc21)OCO3 [9-ING-41 Form I, 3-(5-fluoro-1-benzofuran-3-yl)-4-[5-methyl-2H,5H-[1,3]dioxolo[4,5-f]indol-7-yl]-2,5-dihydro-1H-pyrrole-2,5-dione]"
,,,,,,,,,,,,57 µg/mL,"Cn1cc(C2=C(c3coc4ccc(F)cc34)C(=O)NC2=O)c2cc3c(cc21)OCO3 [Amorphous 9-ING-41, 3-(5-fluorobenzofuran-3-yl)-4-(5-methyl-5H-[1,3]dioxolo[4,5-f]indol-7-yl)pyrrole-2,5-dione]"
